The record followed here is patent US9073955B2, “2-amino-4-arylthiazole compounds as TRPA1 antagonists” (Glenmark Pharmaceuticals, S.A., priority 2010, dated 2015).

The target in the assay is T1, Human TRPA1 (Homo sapiens, UniProt O75762).
T1 construct: expressed in transfected cells; host or cells: CHO cells (grown with 400 μg/ml G-418)
Briefly: 45Calcium uptake assay: inhibition of AITC induced cellular uptake of radioactive calcium. It is filed as cell-based. To be noted: human TRPA1 expressing CHO cells, AITC 30 μM. Here is the method:
The illustrative examples of the present invention were screened for TRPA1 activity according to a modified procedure described in (a) Tóth, A. et al. Life Sciences, 2003, 73, 487-498. ([…]. et al, Proc. Natl. Acad. Sci. U.S.A., 2007, 104, 13525-13530. The screening of the compounds can be carried out by other methods and procedures known to persons skilled in the art. Screening for TRPA1 Antagonist Using the ^45Calcium Uptake Assay: The inhibition of TRPA1 receptor activation was measured as inhibition of allyl isothiocyanate (AITC) induced cellular uptake of radioactive calcium. Test compounds were dissolved in 100% DMSO to prepare 10 mM stock and then diluted using plain medium with 0.1% BSA and 1.8 mM CaCl2 to get the desired concentration. The final concentration of DMSO in the reaction was 0.5% (v/v). Human TRPA1 expressing CHO cells were grown in F-12 DMEM medium with 10% FBS, 1% penicillin-streptomycin solution, and 400 μg/ml of G-418. Cells were seeded 24 h prior to the assay in 96 well plates so as to get 50,000 cells per well on the day of experiment. Cells were treated with the test compounds for 10 minutes followed by the addition of AITC at a final concentration of 30 μM and 5 μCi/ml^45Ca^+2 for 3 minutes. Cells were washed and lysed using a buffer containing 1% Triton X-100, 0.1% deoxycholate and 0.1% SDS. Radioactivity in the lysate was measured in a Packard TopCount after addition of liquid scintillant. (Toth et al, Life Sciences (2003) 73, 487-498; McNamara C R et al, Proceedings of the National Academy of Sciences, (2007) 104, 13525-13530). Concentration response curves were plotted as a % of maximal response obtained in the absence of test antagonist. IC50 values can be calculated from concentration response curve by nonlinear regression analysis using GraphPad PRISM software.

Where [1] appears, read: 1.0 μM, read-out: Percentage inhibition at 1.0 μM.
[2] abbreviates: 10.0 μM, read-out: Percentage inhibition at 10.0 μM.
Setting [3] is: CHO, read-out: Percentage inhibition at 1.0 μM, 1.0 μM.
Setting [4] is: CHO, read-out: Percentage inhibition at 10.0 μM, 10.0 μM.

Molecules are shown by their SMILES. Counter-ions that a name gives are not always drawn. Like-named read-outs stand apart in the source and are kept apart here. Bounds are passed on as bounds.

T1 sequence (O75762 whole entry): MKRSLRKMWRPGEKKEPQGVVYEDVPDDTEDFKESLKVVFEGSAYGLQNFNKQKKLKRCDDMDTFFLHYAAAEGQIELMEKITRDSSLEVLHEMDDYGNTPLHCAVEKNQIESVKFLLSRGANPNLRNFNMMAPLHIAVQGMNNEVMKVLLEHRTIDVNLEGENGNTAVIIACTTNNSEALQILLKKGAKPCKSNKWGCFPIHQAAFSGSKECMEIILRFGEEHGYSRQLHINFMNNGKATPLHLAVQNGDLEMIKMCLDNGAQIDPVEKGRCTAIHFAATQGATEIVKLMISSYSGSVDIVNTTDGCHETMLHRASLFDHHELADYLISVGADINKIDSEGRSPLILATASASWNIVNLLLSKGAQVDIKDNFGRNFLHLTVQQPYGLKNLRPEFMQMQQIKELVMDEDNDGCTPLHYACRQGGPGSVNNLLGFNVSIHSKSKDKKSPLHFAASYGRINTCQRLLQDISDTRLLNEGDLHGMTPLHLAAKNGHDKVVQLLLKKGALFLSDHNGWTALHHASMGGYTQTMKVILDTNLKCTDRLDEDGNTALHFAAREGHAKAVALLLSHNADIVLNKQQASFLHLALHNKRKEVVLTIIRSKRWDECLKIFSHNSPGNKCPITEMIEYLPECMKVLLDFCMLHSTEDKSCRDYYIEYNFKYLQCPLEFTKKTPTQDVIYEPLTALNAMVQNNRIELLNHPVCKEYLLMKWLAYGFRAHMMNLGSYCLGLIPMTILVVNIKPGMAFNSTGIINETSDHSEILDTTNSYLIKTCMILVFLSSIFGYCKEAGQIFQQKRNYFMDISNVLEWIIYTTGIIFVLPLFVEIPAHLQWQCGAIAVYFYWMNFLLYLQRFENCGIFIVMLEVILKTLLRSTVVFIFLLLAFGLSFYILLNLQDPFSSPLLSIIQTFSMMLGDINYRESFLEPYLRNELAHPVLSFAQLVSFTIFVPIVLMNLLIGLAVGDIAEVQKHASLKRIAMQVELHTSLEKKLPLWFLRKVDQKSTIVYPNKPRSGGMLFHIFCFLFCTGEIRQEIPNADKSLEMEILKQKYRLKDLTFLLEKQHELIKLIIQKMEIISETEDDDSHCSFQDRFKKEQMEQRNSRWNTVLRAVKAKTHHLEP

A word on the inhibition: it is how much of the control response was suppressed. In general, IC50 refers to the concentration that inhibits the measured activity by half. As to `CC(C)C(=O)OCn1c(-c2ccc(C(F)(F)F)c(F)c2)cs/c1=N\C(=O)Cc1csc2c1c(=O)n(C)c(=O)n2C` [Example 1, [2-{[(1,3-Dimethyl-2,4-dioxo-1,2,3,4-tetrahydrothieno[2,3-d]pyrimidin-5-yl)acetyl]imino}-4-[3-fluoro-4-(trifluoromethyl)phenyl]-1,3-thiazol-3 (2H)-yl]methyl-2-methyl propanoate], the IC50 lay within 100 to 500 nM. For the same compound, the inhibition at 1 µM under setting [1] stood at 68.1%. Besides, the inhibition at 10 µM under setting [2] was 90.3%.
For `CC(C)C(=O)OCn1c(-c2ccc(F)c(C(F)(F)F)c2F)cs/c1=N\C(=O)Cc1csc2c1c(=O)n(C)c(=O)n2C` [Example 2, [4-[2,4-Difluoro-3-(trifluoromethyl)phenyl]-2-{[(1,3-dimethyl-2,4-dioxo-1,2,3,4-tetrahydrothieno[2,3-d]pyrimidin-5-yl)acetyl]imino}-1,3-thiazol-3(2H)-yl]methyl-2-methylpropanoate], in that order: above 500 nM, 54.8% and 70.2%.
For `CC(C)[C@H](N)C(=O)OCn1c(-c2ccc(F)c(C(F)(F)F)c2F)cs/c1=N\C(=O)Cc1csc2c1c(=O)n(C)c(=O)n2C` [Example 5, [4-[2,4-Difluoro-3-(trifluoromethyl)phenyl]-2-{[(1,3-dimethyl-2,4-dioxo-1,2,3,4-tetrahydrothieno[2,3-d]pyrimidin-5-yl)acetyl]imino}-1,3-thiazol-3 (2H)-yl]methyl L-valinate hydrochloride], the IC50 is below 100 nM. Also, the inhibition at 1 µM (CHO, 1.0 μM, read-out: Percentage inhibition at 1.0 μM) came to 98.6%. Moreover, under “CHO, 10.0 μM, read-out: Percentage inhibition at 10.0 μM”, the inhibition at 10 µM was determined as 99.9%.
Regarding `Cn1c(=O)c2c(CC(=O)/N=c3\scc(-c4ccc(F)c(C(F)(F)F)c4F)n3COC(=O)[C@@H]3CCCN3)csc2n(C)c1=O` [Example 8, [4-[2,4-Difluoro-3-(trifluoromethyl)phenyl]-2-{[(1,3-dimethyl-2,4-dioxo-1,2,3,4-tetrahydrothieno[2,3-d]pyrimidin-5-yl)acetyl]imino}-1,3-thiazol-3(2H)-yl]methyl L-prolinate hydrochloride], the IC50 was below 100 nM. Also, under setting [1], the inhibition at 1 µM was found to be 96.5%. Moreover, under setting [2], the inhibition at 10 µM came to 98.3%.
For `Cn1c(=O)c2c(CC(=O)/N=c3\scc(-c4ccc(C(F)(F)F)c(F)c4)n3COC(=O)C3CCNCC3)csc2n(C)c1=O` [Example 9, [2-{[(1,3-Dimethyl-2,4-dioxo-1,2,3,4-tetrahydrothieno[2,3-d]pyrimidin-5-yl)acetyl]imino}-4-[3-fluoro-4-(trifluoromethyl)phenyl]-1,3-thiazol-3(2H)-yl]methylpiperidine-4-carboxylate hydrochloride], in that order: 100 to 500 nM, 80.1% and 94.8%.
Consider `Cn1c(=O)c2c(CC(=O)/N=c3\scc(-c4ccc(C(F)(F)F)c(F)c4)n3COP(=O)(O)O)csc2n(C)c1=O` [Example 12, Disodium[2-{[(1,3-dimethyl-2,4-dioxo-1,2,3,4-tetrahydrothieno[2,3-d]pyrimidin-5-yl)acetyl]imino}-4-[3-fluoro-4-(trifluoromethyl)phenyl]-1,3-thiazol-3 (2H)-yl]methyl phosphate], for which the 50% inhibitory concentration (IC50) lay in the range of 100 to 500 nM.
`Cc1sc2c(c1CC(=O)/N=c1\scc(-c3ccc(F)c(C(F)(F)F)c3F)n1COP(=O)(O)O)c(=O)n(C)c(=O)n2C` [Example 15, 4-(2,4-Difluoro-3-(trifluoromethyl)phenyl)-2-((2-(1,3,6-trimethyl-2,4-dioxo-1,2,3,4-tetrahydrothieno[2,3-(1]pyrimidin-5-yl)acetyl)imino)thiazol-3 (2H)-yl)methyl dihydrogen phosphate]: the concentration for half-maximal inhibition (IC50) lay within 100 to 500 nM. The inhibition at 1 µM under setting [1] was 81.2%. Further, the inhibition at 10 µM under setting [2] is 98.5%.
Consider `Cc1sc2c(c1CC(=O)/N=c1\scc(-c3ccc(F)c(C(F)(F)F)c3F)n1COP(=O)(O)O)c(=O)n(C)c(=O)n2C` [Example 16, Disodium(4-(2,4-difluoro-3-(trifluoromethyl)phenyl)-2-((2-(1,3,6-trimethyl-2,4-dioxo-1,2,3,4-tetrahydrothieno[2,3-d]pyrimidin-5-yl)acetyl)imino)thiazol-3(2H)-yl)methyl phosphate], for which the 50% inhibitory concentration (IC50) is above 500 nM. The inhibition at 1 µM under setting [3] came out at 48.2%. In addition, the inhibition at 10 µM under setting [4] turned out to be 92.7%.
Turning to `CCc1sc2c(c1CC(=O)/N=c1\scc(-c3ccc(C(F)(F)F)c(F)c3)n1COP(=O)(O)O)c(=O)n(C)c(=O)n2C` [Example 17, [2-{[(6-ethyl-1,3-dimethyl-2,4-dioxo-1,2,3,4-tetrahydrothieno[2,3-d]pyrimidin-5-yl)acetyl]imino}-4-[3-fluoro-4-(trifluoromethyl)phenyl]-1,3-thiazol-3 (2H)-yl]methyl dihydrogen phosphate], the IC50 was above 500 nM. Also, the inhibition at 1 µM under setting [1] was determined as 20.8%. In addition, under setting [2], the inhibition at 10 µM was 96.8%.
`CCc1sc2c(c1CC(=O)/N=c1\scc(-c3ccc(C(F)(F)F)c(F)c3)n1COP(=O)(O)O)c(=O)n(C)c(=O)n2C` [Example 18, Disodium[2-{[(6-ethyl-1,3-dimethyl-2,4-dioxo-1,2,3,4-tetrahydrothieno[2,3-d]pyrimidin-5-yl)acetyl]imino}-4-[3-fluoro-4-(trifluoromethyl)phenyl]-1,3-thiazol-3(2H)-yl]methyl phosphate]: the inhibition at 1 µM under setting [3] was found to be 30%. For the same compound, the inhibition at 10 µM under setting [4] was determined as 88.7%.
Turning to `Cc1oc2c(c1CC(=O)/N=c1\scc(-c3ccc(OC(F)(F)F)c(Cl)c3)n1COC(=O)C(C)(C)C)c(=O)n(C)c(=O)n2C` [Example 19, [4-[3-Chloro-4-(trifluoromethoxy)phenyl]-2-{[(1,3,6-trimethyl-2,4-dioxo-1,2,3,4-tetrahydrofuro[2,3-d]pyrimidin-5-yl)acetyl]imino}-1,3-thiazol-3 (2H)-yl]methyl 2,2-dimethylpropanoate], the 50% inhibitory concentration (IC50) fell in the range of 100 to 500 nM. Besides, the inhibition at 1 µM under setting [1] came to 70.3%. The inhibition at 10 µM under setting [2] stood at 96.7%.
For `CC[C@H](C)[C@H](N)C(=O)OCn1c(-c2ccc(OC(F)(F)F)c(Cl)c2)cs/c1=N\C(=O)Cc1c(C)oc2c1c(=O)n(C)c(=O)n2C` [Example 22, [4-[3-Chloro-4-(trifluoromethoxy)phenyl]-2-{[(1,3,6-trimethyl-2,4-dioxo-1,2,3,4-tetrahydrofuro[2,3-d]pyrimidin-5-yl)acetyl]imino}-1,3-thiazol-3 (2H)-yl]methyl L-isoleucinate hydrochloride], in that order: 100 to 500 nM, 99.2% and 99.6%.
For `Cc1oc2c(c1CC(=O)/N=c1\scc(-c3ccc(OC(F)(F)F)c(Cl)c3)n1COC(=O)[C@@H](N)Cc1ccccc1)c(=O)n(C)c(=O)n2C` [Example 24, 4-[3-Chloro-4-(trifluoromethoxy)phenyl]-2-{[(1,3,6-trimethyl-2,4-dioxo-1,2,3,4-tetrahydrofuro[2,3-d]pyrimidin-5-yl)acetyl]imino}-1,3-thiazol-3(2H)-yl]methyl L-phenylalaninate hydrochloride], in that order: below 100 nM, 98.1% and 99.8%.
